Assay results published in paper PMC12716163 (Nanoscale, 2024).

Tests used:
Aqueous solubility = assay type: physicochemical
PC3-PIP PSMA (+) cells = assay: CellTiter-Glo cell viability; assay type: cell-based, human; conditions: 72 H, equivalent drug bases
c-Met = c-Met (Homo sapiens, UniProt P08581); assay: c-Met inhibition IC50; assay type: biochemical; conditions: read-out: c-Met inhibitory activity IC50
PSMA = PSMA (Homo sapiens, UniProt Q04609); conditions: irreversible inhibitor; cited from earlier work
PSMA, sequence (Q04609 whole entry): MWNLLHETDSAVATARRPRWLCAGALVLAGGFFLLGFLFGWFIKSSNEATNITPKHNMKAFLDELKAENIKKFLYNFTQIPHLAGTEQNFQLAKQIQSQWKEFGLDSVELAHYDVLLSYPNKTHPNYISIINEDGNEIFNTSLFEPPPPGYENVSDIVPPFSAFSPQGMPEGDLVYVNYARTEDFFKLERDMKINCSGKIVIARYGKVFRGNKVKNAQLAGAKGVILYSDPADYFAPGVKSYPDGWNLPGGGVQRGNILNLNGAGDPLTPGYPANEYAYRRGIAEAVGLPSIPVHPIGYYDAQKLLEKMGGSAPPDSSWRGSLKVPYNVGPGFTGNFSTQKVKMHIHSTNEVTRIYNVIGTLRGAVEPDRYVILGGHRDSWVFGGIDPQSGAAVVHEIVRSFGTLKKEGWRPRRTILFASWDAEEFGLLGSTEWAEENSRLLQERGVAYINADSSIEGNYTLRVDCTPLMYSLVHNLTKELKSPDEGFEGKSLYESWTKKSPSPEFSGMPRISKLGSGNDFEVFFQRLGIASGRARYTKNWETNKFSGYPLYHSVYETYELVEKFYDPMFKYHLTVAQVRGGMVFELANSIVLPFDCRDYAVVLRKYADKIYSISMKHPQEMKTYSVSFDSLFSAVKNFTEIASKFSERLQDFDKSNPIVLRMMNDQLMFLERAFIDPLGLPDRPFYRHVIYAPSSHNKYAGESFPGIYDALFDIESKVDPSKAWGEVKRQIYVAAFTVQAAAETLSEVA

c-Met, sequence (P08581 25-1390): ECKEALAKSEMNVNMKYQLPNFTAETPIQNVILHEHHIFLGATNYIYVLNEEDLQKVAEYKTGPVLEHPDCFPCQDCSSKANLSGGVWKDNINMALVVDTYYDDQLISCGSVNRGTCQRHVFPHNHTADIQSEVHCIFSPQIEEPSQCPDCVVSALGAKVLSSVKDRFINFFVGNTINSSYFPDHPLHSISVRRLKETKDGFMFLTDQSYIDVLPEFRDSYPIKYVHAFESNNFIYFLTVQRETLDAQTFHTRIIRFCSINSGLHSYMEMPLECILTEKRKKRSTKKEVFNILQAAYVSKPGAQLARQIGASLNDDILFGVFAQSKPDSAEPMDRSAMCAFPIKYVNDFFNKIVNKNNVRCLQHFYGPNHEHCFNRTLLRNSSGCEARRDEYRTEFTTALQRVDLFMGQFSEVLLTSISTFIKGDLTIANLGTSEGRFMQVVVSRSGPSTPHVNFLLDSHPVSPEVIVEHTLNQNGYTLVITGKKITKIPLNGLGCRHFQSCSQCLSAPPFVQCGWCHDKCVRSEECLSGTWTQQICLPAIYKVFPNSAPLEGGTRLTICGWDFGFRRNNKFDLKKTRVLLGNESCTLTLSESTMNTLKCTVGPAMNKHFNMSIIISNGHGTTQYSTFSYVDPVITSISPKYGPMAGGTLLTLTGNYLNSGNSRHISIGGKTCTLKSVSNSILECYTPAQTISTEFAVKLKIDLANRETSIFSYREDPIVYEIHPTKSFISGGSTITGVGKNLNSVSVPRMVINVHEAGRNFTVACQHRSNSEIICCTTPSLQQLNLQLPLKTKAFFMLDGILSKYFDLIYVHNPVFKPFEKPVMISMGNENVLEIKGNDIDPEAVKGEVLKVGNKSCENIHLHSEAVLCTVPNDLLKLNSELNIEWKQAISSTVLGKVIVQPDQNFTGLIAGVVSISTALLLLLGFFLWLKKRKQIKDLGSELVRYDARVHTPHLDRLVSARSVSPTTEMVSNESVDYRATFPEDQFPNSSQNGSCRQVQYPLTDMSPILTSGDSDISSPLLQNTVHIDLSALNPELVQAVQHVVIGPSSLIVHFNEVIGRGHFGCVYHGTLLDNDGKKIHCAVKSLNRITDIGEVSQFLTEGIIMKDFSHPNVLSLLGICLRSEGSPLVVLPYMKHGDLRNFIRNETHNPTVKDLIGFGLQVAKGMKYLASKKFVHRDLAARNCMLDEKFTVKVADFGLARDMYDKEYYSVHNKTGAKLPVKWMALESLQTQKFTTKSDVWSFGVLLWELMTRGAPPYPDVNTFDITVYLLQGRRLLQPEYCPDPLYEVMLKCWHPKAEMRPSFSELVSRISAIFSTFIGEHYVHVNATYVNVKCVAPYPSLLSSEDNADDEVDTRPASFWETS

SMILES	aqueous solubility (Aqueous solubility)	anti-proliferative IC50 (PC3-PIP PSMA (+) cells) [µg/mL]	IC50 (c-Met) [nM]	PSMA affinity (PSMA)
COc1cc2c(Oc3ccc(NC(=O)C4(C(=O)Nc5ccc(F)cc5)CC4)cc3)ccnc2cc1O [Cabo-OH]	poor aqueous solubility	77.30 ± 4.35	26.3	
O=C(O)CC[C@H](NP(=O)(O)OCCC[C@H](NC(=O)CC[C@H](NC(=O)CCCCCNC(=O)c1ccc(F)cc1)C(=O)O)C(=O)O)C(=O)O [CTT 1057]				nanomolar affinity
COc1cc2nccc(Oc3ccc(NC(=O)C4(C(=O)Nc5ccc(F)cc5)CC4)cc3)c2cc1OC [Cabo, cabozantinib, reference compound]	poor aqueous solubility			
